{"source": "paper PMC9268013", "about": "“Design, Synthesis, and Biological Evaluation of N14-Amino Acid-Substituted Tetrandrine Derivatives as Potential Antitumor Agents against Human Colorectal Cancer” (Molecules, 2022)", "key": {"HUVECs": {"system": "HUVECs", "assay": "Wound healing (migration) assay, HUVEC", "format": "cell-based, human", "conditions": "10 μM, 24 h, control 85%", "experimental": "HCT-15 cells or HUVECs were seeded in six-well culture plates and allowed to grow to 80–90% confluence. Subsequently, a cell-free line was manually created by scratching the confluent cell monolayers with a 200 μL sterile pipette tip, and the detached cells were washed with PBS. The cells were then incubated with 10% FBS and different concentrations of 16 (0.625, 1.25, 2.5, 5, and 10 μM). Then, 24 h later, images of the same location were obtained using a microscope (Nikon ECLIPSE TE2000-U, Tokyo, Japan). Each experiment was carried out at least three times."}, "HCT-15 cells [1]": {"system": "HCT-15 cells", "assay": "Colony formation assay", "format": "cell-based, human", "conditions": "HCT-15, 0.625 μM, 10 d", "experimental": "HCT-15 cells were diluted in 2 mL of culture medium and plated in six-well plates at 37 °C in 5% CO2. After an overnight incubation, compound 16 (0.625, 1.25, 2.5, 5, and 10 μM) was added, and the cells were cultured for 10 d. Afterwards, the medium was replaced. The cells were washed by cold PBS and fixed with 4% paraformaldehyde. Finally, the cell colonies were stained with a 1% crystal violet solution for 20 min. The plates were recorded, and the colonies were counted digitally using ImageJ software with customized macros."}, "p62/SQSTM1 (P62)": {"system": "p62/SQSTM1 (P62)", "assay": "Western blot, p62/SQSTM1 in HCT-15 cells", "format": "cell-based, human", "conditions": "HCT-15, 1.25, 2.5, and 5 μM, concentration-dependent, p < 0.05", "experimental": "The protein levels in HCT-15 cells were evaluated via Western blot analysis. The cells were cultured in dishes (10^7 cells per dish) and incubated overnight at 37 °C, 0.625, 1.25, 2.5, and 5 μM of 16 was added in triplicate after 24 h of incubation. Then, the cells were harvested and lysed in Laemmli buffer (glycerol, 1M TRIS pH 6.8, 1% SDS, MQ H2O and 20% β-mercaptoethanol). The samples were boiled for 5 min at 95 °C, and the protein content was determined using a BCA kit. Equal amounts of 30 μg of sample were placed on a Tris/HCl gel and separated by SDS-PAGE electrophoresis. Then, the samples were transferred to a PVDF membrane (Milibo, Co., Ltd., Billyka, MA, USA) and blocked with 5% skimmed milk powder for 2 h. Diluted primary antibodies Bcl-2 (1:3000), Bax (1:10,000), caspase-3 (l:2000), p62 (1:1000), Beclin1 (1:1000), LC3 (1:2000), and β-actin (1:1000) were incubated overnight at 4 °C, followed by a horseradish peroxidase-conjugated goat anti-rabbit IgG secondary antibody (ProteinTech, China) for 2 h at room temperature. Then, immunoreactivity was developed with diaminobenzidine solution, and scanned and recorded by a gel imaging system (G:BOX Chemi XL1.4, Frederick, MD, USA)."}, "[2]": {"system": "human lung cancer cells (A549)", "assay": "MTT antiproliferative assay, A549", "format": "cell-based", "experimental": "(§1) Human lung cancer cell (A549,), human umbilical vein endothelial cells (HUVECs,), human colon cancer cell lines (HCT-15), human breast cancer cells (MCF-7), human liver cancer cells (HepG2), human pancreatic cancer cells (BxPC-3), and human hepatic cell line (L-02) were obtained from the Sichuan University. A549, HUVECs, and L-02 were cultured in DMEM medium (high glucose, HyClone, GE Healthcare, Sydney, Australia). Human colon cancer cell lines HCT-15, human pancreatic cancer cells […] BxPC-3 were cultured in RPMI-1640. Human breast cancer cells MCF-7 and human liver cancer cells HepG2 were cultured in MEM medium. All the mediums, including 10% fetal bovine serum (FBS, HyClone, GE Healthcare, Sydney, Australia) and 1% ampicillin/streptomycin, were used to culture the above cells at 37 °C in a humidified atmosphere (5% CO2 and 95% air).\n(§2) The antiproliferative activity of the title compounds was determined using the MTT (3-(4,5-dimethylthiazol-2-yl)-2,5-diphenyltetrazolium bromide, Sigma-Aldrich, Saint Louis, MO, USA) assay on different cells. Cells lines were seeded into 96-well plates at a density of 2000 to 6000 cells/well. DMSO was used to dissolve the test compounds, and TET was used as a positive control. After 24 h, the test compounds were added at different concentrations (0.625, 1.25, 2.5, 5, 10, and 20 μM) and incubated at 37 °C for 72 h. MTT was added to each well at a final concentration of 0.5 mg/mL and incubated at 37 °C for 4 h. Then, 150 μL of DMSO was added to each well to dissolve the formazan crystals. The absorbance was measured at 570 nm by a microplate reader (ELX800UV, Bio-Tek, Windoski, VT, USA). All measurements were repeated at least three times under the same conditions. Graphpad Prism 8.0 was used to calculate the IC50 values."}, "[3]": {"assay": "Aqueous solubility determination by HPLC", "format": "physicochemical", "conditions": "neutral water, vs TET", "experimental": "Briefly, each tested compound (10 mg) was dissolved in 10 mL of CH3OH, and the standard solution (0.5 mL) was used to determine the wavelength of maximum absorbance by HPLC. The solution was diluted as necessary, and the solubility was determined by linear regression with R^2 > 0.999. Each tested compound (5 mg) was ultrasound dissolved in 3 mL of pure water for 1 h at room temperature, and the mixture was then […] at 3000 rpm for 15 min. The saturated supernatants were determined by HPLC at the wavelength of the maximum absorption, and the absorbances were obtained. The solubility was calculated according to the standard curve."}, "[4]": {"system": "human colon cancer cells (HCT-15)", "assay": "MTT antiproliferative assay, HCT-15", "format": "cell-based", "experimental": "as §1, §2"}, "[5]": {"system": "human liver cancer cells (HepG2)", "assay": "MTT antiproliferative assay, HepG2", "format": "cell-based", "experimental": "as §1, §2"}, "HCT-15 cells [6]": {"system": "HCT-15 cells", "assay": "Transwell invasion assay", "format": "cell-based, human", "conditions": "HCT-15, transwell, 5 and 10 μM, 20 h", "experimental": "The cell motility inhibitory effect of 16 on HCT-15 cells was evaluated by invasion assay. Briefly, cells were harvested and resuspended in serum-free medium that contained 0.625, 1.25, 2.5, 5, and 10 μM of 16, and were seeded into the upper wells of a transwell chamber (Millicell, […] pore size, 12-mm diameter Millipore) coated with 50 μL of Matrigel (1:3 dilution in serum-free medium, Corning/BD Biosciences) at a density of 2 × 10^5 cells/mL. Meanwhile, 600 μL medium containing 10% FBS and corresponding samples were added into the lower chambers. Then, 20 h later, the invading cells were fixed with 4% paraformaldehyde and stained with 0.2% crystal violet for 30 min. Afterwards, the chambers were washed twice with PBS and left to dry. Cells which had migrated to the lower chamber of the transwell were photographed using a digital camera with an inverted microscope (Nikon ECLIPSE TE2000-U, Tokyo, Japan), and the crystal violet positive cells were counted."}}, "note": "Values joined by “and” are separate entries in the source; they are usually repeats but may differ in a detail not shown here. Identical values can stand only once."}
{"compound": "COc1cc(NC(=O)[C@@H]2CCCN2)c2cc1Oc1ccc(cc1)C[C@H]1c3cc(c(OC)cc3CCN1C)Oc1c(OC)c(OC)cc3c1[C@H](C2)N(C)CC3", "note": "[Compound 16, 14-N-(L-proline)-tetrandrine]", "values": [{"measurement": "Migration rate", "setting": "HUVECs", "result": 10.0, "unit": "%"}, {"measurement": "Colony formation", "setting": "HCT-15 cells [1]", "result": "very few colonies"}, {"measurement": "P62 contents", "setting": "p62/SQSTM1 (P62)", "result": "significantly lessened"}, {"measurement": "IC50", "setting": "[2]; 72 h", "result": "1.19 ± 0.01", "unit": "µM"}, {"measurement": "IC50", "setting": "[2]; Homo sapiens, A549, 72 h", "result": "< 1.5", "unit": "µM"}, {"measurement": "Increase of aqueous solubility compared to TET", "setting": "[3]", "result": "> 5 fold and 5 fold"}, {"measurement": "Improvement of antiproliferative activity compared with TET", "setting": "[4]; HCT-15 cells, vs TET (IC50 = 6.12 μM)", "result": "higher than 10 fold"}, {"measurement": "IC50", "setting": "[4]; Homo sapiens, MTT, 72 h, HCT-15", "result": "0.57 ± 0.03", "unit": "µM"}, {"measurement": "IC50", "setting": "[5]; 72 h", "result": "1.05 ± 0.03", "unit": "µM"}, {"measurement": "IC50", "setting": "[5]; Homo sapiens, HepG2, 72 h", "result": "< 1.5", "unit": "µM"}, {"measurement": "Invaded cells", "setting": "HCT-15 cells [6]", "result": "almost no cancer cells were observed"}]}
